One block for each compound: values may come before it.
Experiments:
[1] = tested on: Podosphaera leucotricha; experiment: Podosphaera test (apple)/protective; format: in vivo; conditions: 240 h, protective, application rate 100 g/ha, evaluation 10 days after inoculation, read-out: % efficacy
Method: (§1) To produce a suitable preparation of active compound, 1 part by weight of active compound is mixed with the stated amounts of solvent and emulsifier, and the concentrate is diluted with water to the desired concentration.
(§2) To test for protective activity, young plants are sprayed with the preparation of active compound at the stated application rate. After the spray coating has dried on, the plants are inoculated with an aqueous spore suspension of the apple mildew pathogen Podosphaera leucotricha. The plants are then placed in a greenhouse at approximately 23° C. and a relative atmospheric humidity of approximately 70%.
(§3) Evaluation is carried out 10 days after the inoculation. 0% means an efficacy which corresponds to that of the control, whereas an efficacy of 100% means that no infection is observed.

[2] = tested on: Venturia inaequalis; experiment: Venturia test (apple)/protective; format: in vivo; conditions: 288 h, protective, application rate 100 g/ha, evaluation 12 days after inoculation, read-out: % efficacy
Method: To produce a suitable preparation of active compound, 1 part by weight of active compound is mixed with the stated amount of solvent and emulsifier, and the concentrate is diluted with water to the desired concentration.
To test for protective activity, young plants are sprayed with the preparation of active compound at the stated application rate. After the spray coating has dried on, the plants are inoculated with an aqueous conidia suspension of the apple scab pathogen Venturia inaequalis and then remain in an incubation cabin at approximately 20° C. and 100% relative atmospheric humidity for 1 day.
The plants are then placed in a greenhouse at approximately 21° C. and a relative atmospheric humidity of approximately 90%.
Evaluation is carried out 12 days after the inoculation. 0% means an efficacy which corresponds to that of the control, whereas an efficacy of 100% means that no infection is observed.

[3] = tested on: Sphaerotheca fuiginea; experiment: Sphaerotheca test (cucumber)/protective; format: in vivo; conditions: Cucumis sativus, 240 h, protective, application rate 100 g/ha, evaluation 10 days after inoculation, read-out: % efficacy
Method: as §1
as §2, with “Sphaerotheca fuiginea.” for “the apple mildew pathogen Podosphaera leucotricha.”
as §3

[4] = logP by HPLC on reversed-phase column (C 18), EEC Directive 79/831 Annex V.A8; format: physicochemical; conditions: reversed-phase HPLC column (C 18)
Method: The logP values given in the Preparation Examples and Tables above were determined in accordance with EEC Directive 79/831 Annex V.A8 by HPLC (High Performance Liquid Chromatography) on a reversed-phase column (C 18). Temperature: 43° C.
In the acidic range, the determination was carried out at pH 2.3 using the mobile phases 0.1% aqueous phosphoric acid and acetonitrile; linear gradient from 10% acetonitrile to 90% acetonitrile (marked ^a) in the Table).
In the neutral range, the determination was carried out at pH 7.5 using the mobile phases 0.01 molar aqueous phosphate buffer solution and acetonitrile; linear gradient from 10% acetonitrile to 90% acetonitrile (marked ^b) in the Table).

[5] = tested on: Puccinia recondita; experiment: Puccinia test (wheat)/protective; format: in vivo; conditions: protective, application rate 250 g/ha, evaluation 10 days after inoculation
Method: as §1
To test for protective activity, young plants are sprayed with the preparation of active compound at the stated application rate. After the spray coating has dried on, the plants are sprayed with a conidia suspension of Puccinia recondita. The plants remain in an incubation cabin at 20° C. and 100% relative atmospheric humidity for 48 hours.
The plants are then placed in a greenhouse at a temperature of approximately 20° C. and a relative atmospheric humidity of 80% to promote the development of rust pustules.
as §3

[6] = tested on: Alternaria solani; experiment: Alternaria test (tomato)/protective; format: in vivo; conditions: protective, application rate 750 g/ha, evaluation 7 days after inoculation
Method: as §1
To test for protective activity, young tomato plants are sprayed with the preparation of active compound at the stated application rate. 1 day after the treatment, the plants are inoculated with a spore suspension of Alternaria solani and then remain at 100% rel. humidity and 20° C. for 24 h. The plants then remain at 96% rel. atmospheric humidity and a temperature of 20° C.
Evaluation is carried out 7 days after the inoculation. 0% means an efficacy which corresponds to that of the control, whereas an efficacy of 100% means that no infection is observed.

[7] = acidic range, pH 2.3, 0.1% aqueous phosphoric acid and acetonitrile, 43° C. (marked a)

Compound: Cc1nn(C)c(F)c1C(=O)Nc1ccccc1-c1ccc(/C=N/OCc2cccnc2)cc1 [Example 12]
- chromatographic logP [4, 7]: 1.75

Compound: Cc1nn(C)c(F)c1C(=O)Nc1c(F)cc(F)cc1-c1ccc(/C=N/OCc2ccccn2)cc1 [Example 15]
- chromatographic logP [4, 7]: 1.81

Compound: C/C(=N\OC(C)C)c1ccc(-c2ccccc2NC(=O)c2c(C)nn(C)c2F)cc1 [Example 20]
- pest or weed control at 100 g/ha [1]: 95%
- % efficacy [5]: 100%
- pest or weed control at 100 g/ha [2]: 100%
- pest or weed control at 100 g/ha [3]: 77%

Compound: CCCCO/N=C\c1ccc(-c2ccccc2NC(=O)c2c(C)nn(C)c2F)cc1 [Example 55]
- chromatographic logP [4, 7]: 4.33

Compound: CCO/N=C/c1ccc(-c2ccccc2NC(=O)c2c(C)nn(C)c2F)cc1OC [Example 38]
- chromatographic logP [4, 7]: 3.58

Compound: Cc1nn(C)c(F)c1C(=O)Nc1c(F)cc(F)cc1-c1ccc(/C=N/OCc2ccccc2)cc1 [Example 14]
- chromatographic logP ([4]; neutral range, pH 7.5, 0.01 molar aqueous phosphate buffer and acetonitrile, 43° C. (marked b)): 3.68

Compound: Cc1nn(C)c(F)c1C(=O)Nc1c(F)cc(F)cc1-c1ccc(/C=N/OCc2cccnc2)cc1 [Example 18]
- chromatographic logP [4, 7]: 1.69

Compound: CCC(C)O/N=C(/C)c1ccc(-c2ccccc2NC(=O)c2c(C)nn(C)c2F)cc1 (stereo not shown) [Example 51]
- chromatographic logP [4, 7]: 4.67

Compound: Cc1nn(C)c(F)c1C(=O)Nc1c(F)cc(F)cc1-c1ccc(/C=N/OCc2ccncc2)cc1 [Example 19]
- chromatographic logP [4, 7]: 1.6

Compound: CO/N=C/c1cccc(-c2cc(C(F)(F)F)cc(Cl)c2NC(=O)c2c(C)nn(C)c2F)c1 [Example 44]
- chromatographic logP [4, 7]: 4.63

Compound: Cc1nn(C)c(F)c1C(=O)Nc1ccccc1-c1ccc(/C=N/OCc2ccccc2)cc1 [Example 13]
- chromatographic logP [4, 7]: 4.02

Compound: CO/N=C/c1ccc(-c2cc(F)cc(F)c2NC(=O)c2c(C)nn(C)c2F)cc1 [Example 2, N-{3,5-difluoro-4′-[(methoxyimino)methyl]-1,1′-biphenyl-2-yl}-5-fluoro-1,3-dimethyl-1H-pyrazole-4-carboxamide]
- % efficacy [6]: 90%

Compound: Cc1nn(C)c(F)c1C(=O)Nc1ccccc1-c1ccc(/C=N/OC(C)C)cc1 [Example 23]
- pest or weed control at 100 g/ha [1]: 100%
- pest or weed control at 100 g/ha [2]: 100%
- pest or weed control at 100 g/ha [3]: 95%

Compound: CO/N=C/c1cccc(-c2ccccc2NC(=O)c2c(C)nn(C)c2F)c1 [Example 5]
- % efficacy [6]: 90%

Compound: CO/N=C(\C)c1cccc(-c2ccccc2NC(=O)c2c(C)nn(C)c2F)c1 [Example 7]
- % efficacy [6]: 100%
- chromatographic logP [4, 7]: 3.2

Compound: Cc1nn(C)c(F)c1C(=O)Nc1ccccc1-c1ccc(/C=N/OCc2ccccn2)cc1 [Example 17]
- chromatographic logP [4, 7]: 1.89

Compound: Cc1nn(C)c(F)c1C(=O)Nc1ccccc1-c1ccc(/C=N/OCc2ccncc2)cc1 [Example 16]
- chromatographic logP [4, 7]: 1.72

Compound: CCO/N=C(\C)c1ccc(-c2ccccc2NC(=O)c2c(C)nn(C)c2F)cc1 [Example 22]
- pest or weed control at 100 g/ha [1]: 99%
- % efficacy [5]: 100%
- pest or weed control at 100 g/ha [2]: 100%
- pest or weed control at 100 g/ha [3]: 95%

Now from value to compound, other results behind:

- chromatographic logP [4, 7]: 3.3
Compound: CO/N=C/c1ccc(-c2ccccc2NC(=O)c2c(C)nn(C)c2F)cc1C [Example 47]
- pest or weed control at 100 g/ha [1]: 100%
- pest or weed control at 100 g/ha [2]: 100%
- pest or weed control at 100 g/ha [3]: 100%

- chromatographic logP [4, 7]: 3.25
Compound: CO/N=C\c1cc(-c2ccccc2NC(=O)c2c(C)nn(C)c2F)ccc1/C=N/OC [Example 48]

- chromatographic logP [4, 7]: 3.38
Compound: Cc1nn(C)c(F)c1C(=O)Nc1ccccc1-c1ccc(/C=N/OCCCl)cc1 [Example 25]

- chromatographic logP [4, 7]: 2.24
Compound: Cc1nn(C)c(F)c1C(=O)Nc1ccccc1-c1ccc(/C=N\O)cc1 [Example 53]

- chromatographic logP [4, 7]: 3.89
Compound: CO/N=C/c1cccc(-c2ccc(Cl)cc2NC(=O)c2c(C)nn(C)c2F)c1 [Example 41]

- chromatographic logP [4, 7]: 3.79
Compound: CO/N=C/c1ccc(-c2ccc(Cl)cc2NC(=O)c2c(C)nn(C)c2F)cc1 [Example 33]

- chromatographic logP [4, 7]: 3.48
Compound: CO/N=C/c1ccc(-c2cc(F)c(F)cc2NC(=O)c2c(C)nn(C)c2F)cc1 [Example 36]

- chromatographic logP [4, 7]: 3.47
Compound: CO/N=C/c1ccc(-c2ccccc2NC(=O)c2c(C)nn(C)c2F)cc1Cl [Example 46]
- pest or weed control at 100 g/ha [1]: 100%
- pest or weed control at 100 g/ha [2]: 100%
- pest or weed control at 100 g/ha [3]: 100%

- chromatographic logP [4, 7]: 3.15
Compound: CO/N=C/c1ccc(-c2ccccc2NC(=O)c2c(C)nn(C)c2F)cc1OC [Example 27]

- chromatographic logP [4, 7]: 4.06
Compound: CO/N=C/c1cccc(-c2cc(OC(F)(F)F)ccc2NC(=O)c2c(C)nn(C)c2F)c1 [Example 43]

- chromatographic logP [4, 7]: 4.63
Compound: CO/N=C/c1ccc(-c2cc(C(F)(F)F)cc(Cl)c2NC(=O)c2c(C)nn(C)c2F)cc1 [Example 40]

- chromatographic logP [4, 7]: 3.05
Compound: CCO/N=C/c1ccc(-c2cc(F)cc(F)c2NC(=O)c2c(C)nn(C)c2F)cc1 [Example 11]
- pest or weed control at 100 g/ha [1]: 100%
- pest or weed control at 100 g/ha [2]: 100%
- pest or weed control at 100 g/ha [3]: 93%

- chromatographic logP [4, 7]: 3.74
Compound: CO/N=C/c1ccc(-c2cc(C)c(F)cc2NC(=O)c2c(C)nn(C)c2F)cc1 [Example 34]

- chromatographic logP [4, 7]: 3.39
Compound: CO/N=C/c1ccc(-c2c(C)cccc2NC(=O)c2c(C)nn(C)c2F)cc1 [Example 29]
- pest or weed control at 100 g/ha [1]: 94%
- pest or weed control at 100 g/ha [2]: 100%
- pest or weed control at 100 g/ha [3]: 83%

- chromatographic logP [4, 7]: 4.09
Compound: CO/N=C/c1cccc(-c2ccc(C(F)(F)F)cc2NC(=O)c2c(C)nn(C)c2F)c1 [Example 42]

- chromatographic logP [4, 7]: 3.26
Compound: CO/N=C/c1ccc(-c2ccccc2NC(=O)c2c(C)nn(C)c2F)c(Cl)c1 [Example 10]

- chromatographic logP [4, 7]: 3.11
Compound: CO/N=C/c1ccc(-c2cc(Cl)cc(F)c2NC(=O)c2c(C)nn(C)c2F)cc1 [Example 35]

- chromatographic logP [4, 7]: 3.1
Compound: CO/N=C/c1ccc(-c2ccc(OC)cc2NC(=O)c2c(C)nn(C)c2F)cc1 [Example 32]

- chromatographic logP [4, 7]: 3.89
Compound: CO/N=C/c1ccc(-c2c(C)cccc2NC(=O)c2c(C)nn(C)c2F)cc1Cl [Example 50]
- pest or weed control at 100 g/ha [1]: 100%
- pest or weed control at 100 g/ha [2]: 100%
- pest or weed control at 100 g/ha [3]: 100%

- chromatographic logP [4, 7]: 3.34
Compound: CO/N=C/c1ccc(-c2ccc(C)cc2NC(=O)c2c(C)nn(C)c2F)cc1 [Example 31]

- chromatographic logP [4, 7]: 3.91
Compound: CCO/N=C/c1ccc(-c2ccccc2NC(=O)c2c(C)nn(C)c2F)c(C)c1 [Example 39]
- pest or weed control at 100 g/ha [1]: 100%
- pest or weed control at 100 g/ha [2]: 100%
- pest or weed control at 100 g/ha [3]: 97%

- chromatographic logP [4, 7]: 3.67
Compound: CO/N=C/c1ccc(-c2cc(Cl)ccc2NC(=O)c2c(C)nn(C)c2F)cc1 [Example 28]

- chromatographic logP [4, 7]: 3.01
Compound: CO/N=C/c1ccc(-c2cc(F)ccc2NC(=O)c2c(C)nn(C)c2F)cc1 [Example 37]
- pest or weed control at 100 g/ha [1]: 100%
- pest or weed control at 100 g/ha [2]: 100%
- pest or weed control at 100 g/ha [3]: 77%

- chromatographic logP [4, 7]: 3.4
Compound: CO/N=C/c1ccc(-c2ccccc2NC(=O)c2c(C)nn(C)c2F)c(C)c1 [Example 26]
- pest or weed control at 100 g/ha [1]: 100%
- % efficacy [5]: 100%
- pest or weed control at 100 g/ha [2]: 100%
- pest or weed control at 100 g/ha [3]: 95%

- chromatographic logP [4, 7]: 3.39
Compound: CO/N=C/c1ccc(-c2ccc(F)cc2NC(=O)c2c(C)nn(C)c2F)cc1 [Example 8]
- pest or weed control at 100 g/ha [1]: 98%
- pest or weed control at 100 g/ha [2]: 99%
